Where two headings read alike, the source gives them in different places.
What was measured:
recombinant aSyn fibrils [1] = molecular target: T1, recombinant aSyn fibrils (Homo sapiens, UniProt P37840); parameters: method as in PMID 40256311; details: in vitro binding properties of lead M503-1619; cited from earlier work
Aβ = molecular target: T2, Aβ (Homo sapiens, UniProt P05067); parameters: method as in PMID 40256311; details: in vitro binding properties of lead M503-1619; cited from earlier work
T2 construct: from tissue; host or cells: Alzheimer disease (AD) brain tissue homogenate
T2 sequence (P05067 672-713 limits assumed): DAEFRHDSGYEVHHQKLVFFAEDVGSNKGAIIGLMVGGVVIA

recombinant aSyn fibrils [2] = molecular target: T1, recombinant aSyn fibrils; assay: In vitro radioligand binding assay with [^3H]BF2846 in recombinant aSyn fibrils
Method: The affinity of the target compounds for aSyn was performed in recombinant human fibrils using an in vitro radioligand binding assay with [^3H]BF2846 as the radioligand, which binds to site 9 in recombinant aSyn fibrils [16].
In vitro radioligand biding assays were performed by using the pervious published method [12, 15] to measure the affinity of the target compounds for aSyn and Aβ. In brief, the radioligand for the aSyn assay was [^3H]BF2846 and the assay was conducted using recombinant fibrils. Three concentrations of test compounds (10 nM, 100 nM and 1 µM) were incubated with ~4 nM [^3H]BF2846 and 50 nM aSyn fibrils in a working buffer (50 mM Tris-HCl, 0.01% bovine serum albumin) at 37 °C for 1.5 h. The mixture (150 µL) was separated by filtration through a Unifilter-96 system (PerkinElmer, Shelton, CT, USA) and washed with an ice-cold buffer (10 mM Tris-HCl (pH 7.4), 15 mM NaCl and 20% EtOH) before scintillation counting. Total binding was defined in the absence of competitor, and non-specific binding was determined using 100 nM unlabeled BF2846. […] Data from three independent experiments were analyzed by non-linear regression in GraphPad Prism v.9.3.1 (GraphPad Inc., San Diego, CA, USA) to calculate Ki values using the equation, Ki = EC50/(1 + [radioligand]/Kd).

Ki (recombinant aSyn fibrils [2]) | SMILES | Ki (recombinant aSyn fibrils [1]) | Ki (Aβ)
 | COc1ccc(NC(=O)c2cnc(N3CCN(c4ccccn4)CC3)nc2N)cc1 [Compound M503-1619] | 6.5 nM | 390 nM
41.9 ± 13.8 nM | COc1ccc(NC(=O)c2cnc(N3CCN(c4ncccn4)CC3)nc2N)cc1 [GT-9-40] |  | 
